From patent EP0328089A2, “Reduced size LHRH analogs” (ABBOTT LABORATORIES, priority 1988, dated 1989)
Where a SMILES comes first, the peptide text is derived from it. [ ]: non-standard residue; d: D form. The star is where a group is joined. Propanoyl(3-(1-naphthyl)) = O=C(CCc1cccc2ccccc12)*; Propanoyl(3-indol-3-yl) = O=C(CCc1c[nH]c2ccccc12)*; d2Nal = N[C@H](Cc1ccc2ccccc2c1)C(=O)O

Test system: plasma LH levels
Assay: Plasma LH level during and after i.v. infusion (Figures 1 and 2)
Format: in vivo
Conditions: mature castrate male rats, plot only, compound characterised in words
Excerpt: Figures 1 and 2 illustrate the effect on plasma LH levels in mature castrate male rats during and after i.v. infusion of compounds 20 and 24, respectively.

CCNC(=O)[C@@H]1CCCN1C(=O)[C@H](CCCNC(=N)N)NC(=O)[C@H](CC(C)C)NC(=O)[C@@H](Cc1c[nH]c2ccccc12)NC(=O)[C@H](Cc1ccc(O)cc1)NC(=O)[C@H](CO)NC(=O)CCc1c[nH]c2ccccc12 [compound 24, (4-9)[N-(3-(3-Indole)propionyl)-Ser⁴-D-Trp⁶-Pro⁹-NHEt] LHRH] ({Propanoyl(3-indol-3-yl)}-SY[dW]LRP-NHEt)
effect on plasma LH levels: LHRH agonist

CCNC(=O)[C@@H]1CCCN1C(=O)[C@H](CCCNC(=N)N)NC(=O)[C@H](CC(C)C)NC(=O)[C@@H](Cc1ccc2ccccc2c1)NC(=O)[C@H](Cc1ccc(O)cc1)NC(=O)[C@H](CO)NC(=O)CCc1cccc2ccccc12 [compound 20] ({Propanoyl(3-(1-naphthyl))}-SY[d2Nal]LRP-NHEt)
effect on plasma LH levels: LHRH antagonist
